From patent publication US6579720B1, “Method for activity profiling compound mixtures” (BDC Pharma LLC, priority 1999, dated 2003)

What was measured:
[1] = IAM chromatography, normalized capacity factor on esterIAM.PC C10/C3; assay type: physicochemical; settings: 15% acetonitrile + 85% 0.03 M NH4OAc buffer pH 7.4, 1 mL/min
Excerpt: (§1) The preferred, if not only surfaces capable of measuring membrane binding constants so far are from a group of immobilized artificial membranes (IAMs). IAMs consist of a monolayer of phospholipids covalently immobilized to a silica surface. Five types of IAM surfaces are typically used: phosphatidylcholine (PC), phosphatidylethanolamine (PE), phosphatidylserine (PS), sphingomyelin (SM), and cholesterol (CL). These IAM silica surfaces are used as the stationary phase in high performance liquid chromatography (HPLC). The IAM columns can be run in parallel with one single MS detection system (multi-column LC/MS) or successively using a one-column LC/MS instrument.
(§2) Dimensions of the columns: 3.0×0.46 cm.
(§3) Wavelength of the UV detector: 220 nm.
(§4) Mobile phase composition: 15% of acetonitrile+85% of 0.03 M NH4OAc buffer (pH 7.4).
(§5) All five compounds were chromatographed on ^esterIAM.PC^C10/C3, ^esterIAM.PE^C10/C3, ^esterIAM.PS^C10/C3, IAM.SM^C10/C3 using the experimental conditions described above. A representative set of normalized capacity factor values (αk′) of these drugs are presented in Table 6 [It should be noted that these values are very much dependent on packing material quality and density, as well as mobile phase composition (particularly the pH). Thus these values are not absolute and may vary from column to column within the same column type].

[2] = IAM chromatography, normalized capacity factor on esterIAM.PE C10/C3; assay type: physicochemical; settings: 15% acetonitrile + 85% 0.03 M NH4OAc buffer pH 7.4, 1 mL/min
Excerpt: as §1, §2, §3, §4, §5

[3] = IAM chromatography, normalized capacity factor on esterIAM.PS C10/C3; assay type: physicochemical; settings: 15% acetonitrile + 85% 0.03 M NH4OAc buffer pH 7.4, 1 mL/min
Excerpt: as §1, §2, §3, §4, §5

[4] = IAM chromatography, normalized capacity factor on IAM.SM C10/C3; assay type: physicochemical; settings: 15% acetonitrile + 85% 0.03 M NH4OAc buffer pH 7.4, 1 mL/min
Excerpt: as §1, §2, §3, §4, §5

[5] = test system: antibody of the Haloperidol ELISA (specific for Haloperidol); assay: Haloperidol ELISA (Neogen competitive ELISA test kit); assay type: binding
Excerpt: (§6) ELISA test kits were purchased from Neogen Corporation, Lexington, Ky. […] Structural features that typically produce a positive response for each of these assays are described on FIG. 11.
(§7) ELISA is a method of analysis that relies on specific interactions between antibodies and antigens to detect a variety of substances. The assay (Neogen) operates on the basis of competition between the horseradish peroxidase (HRP) enzyme conjugate and the analyte in the sample for specific binding sites on the precoated antibody microplate. The test kits used for the experiment are 96-well plates precoated with a specific antibody. As described in FIG. 12, the sample or standard solution is first added to the precoated antibody microplate. Next, the diluted enzyme conjugate is added and the mixture is shaken and then incubated at room temperature for one hour. During incubation, competition for binding sites on the microplate is taking place. The plate is then washed removing all unbound material. The bound enzyme conjugate is detected by the addition of a tetramethylbenzidine (TMB) based substrate which generates an optimal color after 30 minutes. […] The extent of color development is inversely proportional to the amount of analyte in the sample or standard. […] Typically, the sensitivity of the selected ELISA assays ranges from ˜0.1 to 20-30 ng/mL depending on the substrate. […]

[6] = test system: tricyclic antibody; assay: Tricyclic ELISA (Neogen competitive ELISA test kit); assay type: binding; settings: experiment C, 7-drug mixture; ELISA fingerprint compared with chromatographic fingerprints
Excerpt: as §6, §7

[7] = test system: antibody of the Benzodiazepines ELISA (specific for compounds belonging to the Benzodiazepine family); assay: Benzodiazepine ELISA (Neogen competitive ELISA test kit); assay type: binding; settings: experiment C, 7-drug mixture; ELISA fingerprint compared with chromatographic fingerprints
Excerpt: as §6, §7

For `Cc1cn([C@H]2C[C@H](N=[N+]=[N-])[C@@H](CO)O2)c(=O)[nH]c1=O` [AZT], the “IAM.PC (αk′)” value [1] was 0.36, the “IAM.PE (αk′)” value [2] was 0.76 and the “IAM.PS (αk′)” value [3] was 0.36. For the same compound, the “IAM.SM (αk′)” value [4] was 0.26.

For `O=C(CCCN1CCC(O)(c2ccc(Cl)cc2)CC1)c1ccc(F)cc1` [Haloperidol], the “Haloperidol ELISA activity assigned to compound” value ([5]; experiment B, 70-drug mixture, activity profile compared with chromatographic fingerprints) was “activity should be assigned to Haloperidol” and the “Haloperidol ELISA activity assigned to compound” value ([5]; experiment C, 7-drug mixture, ELISA fingerprint compared with chromatographic fingerprints) was “only matches the chromatographic fingerprint of Haloperidol”.

In the case of `CN1CCCN=C1COC(=O)C(O)(c1ccccc1)C1CCCCC1` (stereo not drawn) [Oxyphencyclimine], the “Tricyclic ELISA activity assigned to compound” value [6] is reported as “detected”.

With `CCN(CC)C(=O)c1cccnc1` [Nikethamide] the “IAM.PC (αk′)” value [1] was 0.33, the “IAM.PE (αk′)” value [2] was 1.55 and the “IAM.PS (αk′)” value [3] was 0.61. The “IAM.SM (αk′)” value [4] was 0.30.

With `CCn1cc(C(=O)O)c(=O)c2cc(F)c(N3CCNCC3)cc21` [Norfloxacin] the “IAM.PC (αk′)” value [1] was 0.64, the “IAM.PE (αk′)” value [2] was 1.31 and the “IAM.PS (αk′)” value [3] was 8.09. The “IAM.SM (αk′)” value [4] was 2.09.

In the case of Olazoline, the “IAM.PC (αk′)” value [1] is reported as 0.52, the “IAM.PE (αk′)” value [2] is reported as 1.19 and the “IAM.PS (αk′)” value [3] is reported as 4.72. For the same compound, the “IAM.SM (αk′)” value [4] was 0.49.

In the case of `COc1cc(CCN)cc(OC)c1OC` [Mescaline], the “IAM.PC (αk′)” value [1] is reported as 0.62, the “IAM.PE (αk′)” value [2] is reported as 1.95 and the “IAM.PS (αk′)” value [3] is reported as 11.39. For the same compound, the “IAM.SM (αk′)” value [4] was 0.49.

With `CN1C(=O)CN=C(c2ccccc2)c2cc(Cl)ccc21` [Diazepam] the “Benzodiazepine ELISA activity assigned to compound” value [7] was “detected by the Benzodiazepine ELISA assay”.
